Test results as given in ChEMBL document CHEMBL3593244, “Design, synthesis and preliminary bioactivity evaluations of substituted quinoline hydroxamic acid derivatives as novel histone deacetylase (HDAC) inhibitors” (Bioorg Med Chem, 2015).
pIC50: −log10 of the molar value.

How the values were obtained:
[1] = biological target: Histone deacetylase (HDAC1 and HDAC2) (Homo sapiens, UniProt Q13547+Q92769); experiment: Inhibition of HDAC1/2 in human HeLa cell nuclear extracts preincubated for 5 mins followed by substrate addition measured after 0.5 hrs by Color de Lys assay; type: cell-based
MDA-MB-231 = experiment: Cytotoxicity against human MDA-MB-231 cells assessed as inhibition of cell proliferation after 48 hrs by MTT assay; type: functional, cell-based; conditions: MDA-MB-231, 48 h
PC-3 = experiment: cells; type: functional, cell-based; conditions: Homo sapiens, PC-3, 48 h
Description: Cytotoxicity against human PC3 cells assessed as inhibition of cell proliferation after 48 hrs by MTT assay

K562 = experiment: cells; type: functional, cell-based; conditions: Homo sapiens, K562, 48 h
Description: Cytotoxicity against human K562 cells assessed as inhibition of cell proliferation after 48 hrs by MTT assay

A549 = experiment: cells; type: functional, cell-based; conditions: Homo sapiens, A549, 48 h
Description: Cytotoxicity against human A549 cells assessed as inhibition of cell proliferation after 48 hrs by MTT assay

Row | Structure (SMILES) | IC50 [1] | also measured
1 | O=C(CCCCCCCC(=O)NCc1cc(C(=O)NCc2ccccc2)c2cc(Br)ccc2n1)NO | > 1 µM | 
2 | O=C(CCCC(=O)NCc1cc(C(=O)NCc2ccccc2)c2ccccc2n1)NO | > 1 µM | 
3 | O=C(CCCCCC(=O)NCc1cc(C(=O)Nc2ccccc2)c2ccccc2n1)NO | 0.301 µM | 
4 | O=C(CCCCCCC(=O)NCc1cc(C(=O)NCc2ccccc2)c2ccccc2n1)NO | 0.78 µM | 
5 | CNC(=O)c1cc(CNC(=O)CCCCCCC(=O)NO)nc2ccccc12 | > 1 µM | 
6 | O=C(CCCCC(=O)NCc1cc(C(=O)NCc2ccccc2)c2ccccc2n1)NO | > 1 µM | 
7 | O=C(CCCCCCC(=O)NCc1cc(C(=O)Nc2ccccc2)c2ccccc2n1)NO | 0.562 µM | 
8 | O=C(CCCCCC(=O)NCc1cc(C(=O)NCc2ccccc2)c2cc(-c3ccccc3)ccc2n1)NO | 0.341 µM | 
9 | O=C(CCCCCCC(=O)NCc1cc(C(=O)NCc2ccccc2)c2cc(Br)ccc2n1)NO | > 1 µM | 
10 | O=C(CCCCCC(=O)NCc1cc(C(=O)NCc2ccccc2)c2ccccc2n1)NO | 0.399 µM | 
11 | O=C(CCCCCCCC(=O)NCc1cc(C(=O)NCc2ccccc2)c2ccccc2n1)NO | > 1 µM | 
12 | CCCCNC(=O)c1cc(CNC(=O)CCCCCC(=O)NO)nc2ccccc12 | 0.444 µM | 
13 | CCCCNC(=O)c1cc(CNC(=O)CCCCCCC(=O)NO)nc2ccccc12 | > 1 µM | 

Now from value to molecule, other results behind:

Row | IC50 [1] | Structure (SMILES) | also measured
14 | 0.155 µM | O=C(CCCCCC(=O)NCc1ccc2cc(F)ccc2n1)NO | 
15 | 0.132 µM | O=C(CCCCCC(=O)NCc1ccc2cc(I)ccc2n1)NO | pIC50 (MDA-MB-231): 5.85; pIC50 (PC-3): 5.07; pIC50 (K562): 5.61; pIC50 (A549): 5.59
16 | 0.12 µM | O=C(CCCCCC(=O)NCc1ccc2cc(Cl)ccc2n1)NO | pIC50 (MDA-MB-231): 5.74; pIC50 (PC-3): 5.04; pIC50 (K562): 5.47; pIC50 (A549): 5.57
17 | 0.152 µM | O=C(CCCCCC(=O)NCc1ccc2cc(-c3ccccc3)ccc2n1)NO | 
18 | > 1 µM | O=C(CCCCCCC(=O)NCc1cc(C(=O)Nc2ccccc2)c2cc(Br)ccc2n1)NO | 
19 | > 1 µM | O=C(CCCCC(=O)NCc1ccc2ccccc2n1)NO | 
20 | 0.196 µM | O=C(CCCCCC(=O)NCc1cc(C(=O)Nc2ccccc2)c2cc(Br)ccc2n1)NO | 
21 | 0.678 µM | O=C(CCCCCCC(=O)NCc1ccc2ccccc2n1)NO | 
22 | 0.146 µM | O=C(CCCCCCC(=O)NCc1ccc2cc(Br)ccc2n1)NO | 
23 | 0.642 µM | CNC(=O)c1cc(CNC(=O)CCCCCC(=O)NO)nc2ccccc12 | 
24 | > 1 µM | O=C(CCCC(=O)NCc1ccc2ccccc2n1)NO | 
25 | 0.343 µM | O=C(CCCCCC(=O)NCc1cc(C(=O)NCc2ccccc2)c2cc(Br)ccc2n1)NO | 
26 | 0.085 µM | O=C(CCCCCC(=O)NCc1ccc2cc(Br)ccc2n1)NO | pIC50 (MDA-MB-231): 6.05; pIC50 (PC-3): 5.03; pIC50 (K562): 5.31; pIC50 (A549): 5.41
27 | 0.266 µM | O=C(CCCCCC(=O)NCc1ccc2ccccc2n1)NO | 
